Laboratory results: US7238677B2, “Prevention of urogenital infections” (Kimberly-Clark Worldwide, Inc., priority 2003, dated 2007)

Columns and labels:
Type in all cases: cell-based
[1] = system: E. coli with P family pili, ATCC 53505; test: E. coli adhesion to A431 epithelial cells; conditions: A431 cells pre-incubated 30 minutes, OD 540 nm of 2 hr culture of bound bacteria
Experimental: Cultured A431 cells were used as a vaginal epithelial model. A431 cells were obtained from American Cell Type Culture Collection, catalog # CRL-1555. A monolayer of A431 cells was grown on a 24-well tissue culture plate until confluent.
E. coli with P family pili, ATCC 53505, were cultured in trypticase soy broth (TSB) overnight. Phosphate buffered saline (PBS, control) or hyaluronic acid (Sigma catalog # H 1876) solutions at a concentration of 1 mg/ml or 5 mg/ml in PBS was added to the A431 cell layers, using a volume of 1.2 ml/well. After incubation for 30 minutes at 37° C., 0.7 ml of solution was removed from the wells and 0.5 ml of the bacteria suspension was added. […] After 60 minutes, the supernatant in each well was removed and the wells were rinsed thoroughly with PBS to remove all non-bound bacteria. Trypticase soy broth was then added to wells, and the whole system was incubated at 37° C. with shaking for 2 hours. Bacterial concentration was measured by the detection of optical density of bacterial suspension at 540 nm.
(§1) All the data are expressed as mean±SEM and were analyzed by one-way Analysis of Variance (ANOVA) followed by a Tukey-Kramer Multiple Comparisons Test. Differences were considered significant at the level of p<0.05.

E. coli, ATCC 53505 = test: Effect on E. coli growth (optical density at 540 nm); conditions: OD 540 nm at 1, 2 and 3 hours
Experimental: To test whether hyaluronic acid could influence cellular growth, E. coli, ATCC 53505 cells were cultured overnight in trypticase soy broth. The culture was then diluted to an optical density of 0.1 and hyaluronic acid (1 mg/ml or 5 mg/ml) in PBS was incubated with the E. coli suspension. A control comprising a suspension E. coli treated with PBS was also prepared. The test and control cells were incubated at 37° C. with shaking and the optical density of the bacterial suspensions at 540 nm was measured at 1, 2 and 3 hours after addition of the hyaluronic acid or PBS.
as §1

[2] = system: Candida albicans, ATCC 10231; test: Adherence of Candida albicans to A431 cells; conditions: for number of Candida albicans adhering to A431 cells: A431 cells pre-incubated 30 minutes, colony count
Experimental: A culture of Candida albicans, ATCC 10231, was started as a frozen bead in peptone/glucose culture medium and incubated at 37° C. with shaking for three days before the experiment. A monolayer of A431 cells, ATCC CRL-1555, was grown on a 24-well tissue culture plate until confluent. Hyaluronic acid at concentration of 1 mg/ml PBS or 5 mg/ml PBS was added to the wells (1.2 ml/well), and the plates were incubated for 30 minutes at 35° C. A control plate of confluent A431 cells was also prepared that received 1.2 ml/well PBS and no hyaluronic acid. After the 30 min incubation, 0.7 ml of solution was removed from the wells and 0.5 ml of yeast suspension (1×10^6 cfu/ml) was added. After 2 hours of incubation, the supernatant was removed from the wells and the wells were rinsed thoroughly with PBS to remove all non-bound yeast. Then, 0.2 ml of 0.25% trypsin/EDTA was added to each well and the plates were incubated at 35° C. for 15 min. Trypsinization was stopped by adding 1 ml of 10% fetal bovine serum in culture medium. The trypsinized cell/yeast suspension was centrifuged and re-suspended in 1 ml of the medium. Serial dilutions of the Candida albicans/A431 cell suspension were plated on Sabouraud's dextrose agar plates and incubated overnight at 35° C. The number of colonies on each plate was counted and the number of yeast attached to the cells in each well was calculated.
All the data are expressed as mean ±SEM and were analyzed by one-way Analysis of Variance (ANOVA) followed by a Tukey-Kramer Multiple Comparisons Test. Differences were considered significant at the level of p<0.05.

Substance: hyaluronic acid
- number of E. coli attached to A431 cells ([1]; 1 mg/ml in PBS): lesser effect
- number of E. coli attached to A431 cells ([1]; 5 mg/ml in PBS): significantly inhibited
- effect on bacterial growth (E. coli, ATCC 53505; 1 mg/ml in PBS): neither of the hyaluronic acid solutions had any effect on bacterial growth
- effect on bacterial growth (E. coli, ATCC 53505; 5 mg/ml in PBS): neither of the hyaluronic acid solutions had any effect on bacterial growth
- number of Candida albicans adhering to A431 cells ([2]; 1 mg/ml in PBS): the effect was not so significant
- number of Candida albicans adhering to A431 cells ([2]; 5 mg/ml in PBS): significantly inhibited
- number of yeast colonies from treated A431 cells (FIG. 4) ([2]; versus PBS-treated A431 cells, concentration not given): fewer yeast colonies
